The Deep4Chem optical property database

Assay: solvent given as SMILES

Structure (SMILES): C(=C\c1ccncn1)/c1ccc(N2CCCCC2)cc1
- emission maximum (in C1CCOC1): 486 nm
- emission maximum (in CC#N): 514 nm
- emission maximum (in CCCCCCC): 435 nm
- emission maximum (in CS(C)=O): 521 nm
- emission maximum (in ClCCl): 498 nm

Structure (SMILES): Clc1ccc(/C=C/c2nc3ccccc3o2)cc1
- emission maximum (in C1CCCCC1): 380 nm
- emission maximum (in CO): 385 nm

Structure (SMILES): CCOC(=O)/N=c1/oc2cc(N(CC)CC)ccc2cc1C#N
- emission maximum (in ClCCl): 486 nm

Structure (SMILES): c1ccc(-c2nc(-c3ccccc3)nc(-c3ccc(-n4c5ccc(-c6ccc7oc8ccccc8c7c6)cc5c5cc(-c6ccc7oc8ccccc8c7c6)ccc54)cc3)n2)cc1
- emission maximum (in CCOC(C)=O): 476 nm
- emission maximum (in CN(C)C=O): 529 nm
- emission maximum (in Cc1ccccc1): 437 nm

Structure (SMILES): Cc1ccc(C2=Cc3ccc4ccccc4[n+]3[B-](F)(F)O2)cc1
- emission maximum (in ClC(Cl)Cl): 443 nm

Structure (SMILES): NC1=N/C(=N\c2ccccn2)c2cccc3cccc1c23
- emission maximum (in ClCCl): 506 nm

Structure (SMILES): Cc1cc(-c2nc(-c3ccccc3)nc(-c3ccccc3)n2)ccc1-n1c2ccccc2c2cc3c(cc21)C1c2ccccc2C3c2ccccc21
- emission maximum (in Cc1ccccc1): 431 nm
- emission maximum (in O=P(c1ccccc1)(c1ccccc1)c1ccccc1Oc1ccccc1P(=O)(c1ccccc1)c1ccccc1): 451 nm

Structure (SMILES): CCN(CC)c1ccc2c(C(F)(F)F)cc(=O)oc2c1
- emission maximum (in C1CCCCC1): 433 nm
- emission maximum (in CC#N): 501 nm
- emission maximum (in CCO): 509 nm
- emission maximum (in CCOC(C)=O): 479 nm
- emission maximum (in OCC(O)CO): 524 nm

Structure (SMILES): CN(C)c1ccc(C2=CC3=C(c4ccc([N+](=O)[O-])cc4)[C@H]4c5ccccc5[C@]3(S2)c2ccccc24)cc1
- emission maximum (in ClCCl): 625 nm

Structure (SMILES): CCC1(CC)c2cc(B(c3c(C)cc(C)cc3C)c3c(C)cc(C)cc3C)ccc2-c2c1c1c(c3c2C(CC)(CC)c2cc(N(c4ccccc4)c4ccccc4)ccc2-3)C(CC)(CC)c2cc(B(c3c(C)cc(C)cc3C)c3c(C)cc(C)cc3C)ccc2-1
- emission maximum (in C1CCOC1): 500 nm
- emission maximum (in CC#N): 582 nm
- emission maximum (in CC(C)=O): 550 nm
- emission maximum (in CCCCCC): 421 nm
- emission maximum (in CCCO): 501 nm
- emission maximum (in CCO): 512 nm
- emission maximum (in Cc1ccccc1): 444 nm
- emission maximum (in ClC(Cl)Cl): 473 nm

Structure (SMILES): O=S(=O)([O-])c1ccc2c([O-])cc(S(=O)(=O)[O-])cc2c1
- emission maximum (in O): 485 nm

Structure (SMILES): c1ccc(-c2nc(-c3ccc(-c4ccc(-n5c6ccccc6c6ccccc65)cc4)cn3)oc2-c2ccccc2)cc1
- emission maximum (in C1CCOC1): 411 nm
- emission maximum (in C1COCCO1): 406 nm
- emission maximum (in CC#N): 415 nm
- emission maximum (in CC(C)=O): 413 nm
- emission maximum (in CC(C)OC(C)C): 398 nm
- emission maximum (in CCCCCC): 392 nm
- emission maximum (in CCCCOCCCC): 399 nm
- emission maximum (in CCN(CC)CC): 396 nm
- emission maximum (in CCOC(C)=O): 408 nm
- emission maximum (in CCOCC): 400 nm
- emission maximum (in Cc1ccccc1): 404 nm
- emission maximum (in c1ccccc1): 405 nm

Structure (SMILES): Cc1cc(C)c(C)c(B(c2c(C)c(C)cc(C)c2C)c2c(C)c(C)c(N3c4ccccc4Oc4ccccc43)c(C)c2C)c1C
- emission maximum (in CC(C)(C)c1ccc(-n2c3ccc([Si](c4ccccc4)(c4ccccc4)c4ccccc4)cc3c3cc([Si](c4ccccc4)(c4ccccc4)c4ccccc4)ccc32)cc1): 478 nm

Structure (SMILES): CCn1c2ccccc2c2cc(C#Cc3cc(C#Cc4ccc5c(c4)c4ccccc4n5CC)nc(OC)n3)ccc21
- emission maximum (in C1CCOC1): 445 nm
- emission maximum (in CCOC(C)=O): 442 nm
- emission maximum (in CN(C)C=O): 499 nm
- emission maximum (in Cc1ccccc1): 411 nm
- emission maximum (in ClCCl): 467 nm
